Measurements: patent US20040115150A1, “Cosmetics and treatment method for promoting maturation of cornified envelopes” (priority 2001, published 2004)

What was measured:
[1] = tested on: immature CE (cornified envelope) in stratum corneum; assay: CE Maturation Promoting Test, incubation varied to 37° C. and 100% relative humidity for a day; parameters: species or system human
Protocol: (§1) Stratum corneum containing many immature CE's were taken from the subjects suffering from skin troubles such as chapping, by means of tape stripping. To the stratum corneum still adhering to the tapes, a test solution was applied, followed by 4 days' incubation under the conditions of 30° C. in temperature and 70% in humidity. After end of the incubation, a tris-hydrochloric acid buffer solution containing dithiothreitol and sodium dodecylsulfate was added, followed by 10 minutes' heating at 100° C. The insoluble matter was collected by centrifuge at 4000 g for 10 minutes. Addition of the eluate and heating cycle was further repeated to thoroughly remove the soluble component. Thus obtained insoluble matter was used as CE.
Properties of each CE thus isolated were evaluated by the following method: CE was spotted on a piece of slide glass, air-dried and fixed in cold acetone. Hydrating the same with Dulbecco's phosphate buffered saline, it was reacted with mouse anti-human involucrin antibody (NOVOCASTRA Co.) as the primary antibody. Excessive antibody was removed by washing and the residue was reacted with FITC-labeled rabbit anti-mouse immunoglobulin antibody as the secondary antibody. Excessive antibody was removed by washing, and the residue was reacted with Nile Red dye solution, sealed and observed with a fluorescence microscope. The observed images were taken into computer via CCD camera, and the ratio of involucrin positive immature CE and that of Nile Red-positive mature CE were evaluated using an image analysis software (Win Roof) or the like.
Procedures similar to Example 1 were repeated, except that the incubation conditions were varied to 37° C. and 100% (relative humidity) for a day.

[2] = tested on: immature CE (cornified envelope) in stratum corneum; assay: CE Maturation Promoting Test (tape-stripped stratum corneum, 4 days' incubation at 30° C., 70% humidity); parameters: species or system human; details: test solution applied to tape-stripped stratum corneum, involucrin/Nile Red staining, mean of N = 3, water control 11.7
Protocol: as §1
Properties of each CE thus isolated were evaluated by the following method: CE was spotted on a piece of slide glass, air-dried and fixed in cold acetone. […] Excessive antibody was removed by washing, and the residue was reacted with Nile Red dye solution, sealed and observed with a fluorescence microscope. The observed images were taken into computer via CCD camera, and the ratio of involucrin positive immature CE and that of Nile Red-positive mature CE were evaluated using an image analysis software (Win Roof) or the like.

[3] = Table 3, one day, mean of N = 3, before treatment 28.3, 0.1 M MES buffer pH5.5 control 3.0
[4] = Table 2, one day, mean of N = 3, water control 36.9

SMILES	Ratio of Immature CE (%) [1, 3] [%]	Ratio of Immature CE (%) [2] [%]	Ratio of Immature CE (%) [1, 4] [%]
O[C@H](CS)[C@H](O)CS (racemic) [10 mM dithiothreitol, dithiothreitol]	0.33		
[Ca+2].[Cl-].[Cl-] [1 mM calcium chloride, calcium chloride]	1.83		
OCC(O)CO [10% glycerin, glycerin]		6.3	14.6
C[N+](C)(C)CC(=O)O [10% trimethyl glycine, trimethyl glycine]			9.3
